Results from patent publication US4791215A, “Derivatives of glutamic acid and aspartic acid” (priority 1984, dated 1988).

Experiments:
[1] = test system: morphine analgesia; assay: Increase in analgesia of morphine, Tail Flick Test (Experiment 1); format: in vivo, rats; details: for percentage variation of latency of pain sensation / M (10-90) ± SE, mean percentage variation of latency: compound 10 mg/kg i.p. + morphine 2 mg/kg; for M (10-90) ± SE, mean percentage variation of latency: mean 10-90 min; for Power ratio with respect to morphine alone: rat, in vivo
Protocol: Experiment No: 1 Increase in analgesia of analgesic-narcotic drugs in rats by the Tail Flick Test
The method is that described by Harris et al. (J. Pharmacol. Exp. Ther. 143 (1964) 141-148).
Male rats are used having a weight of about 150-200 g which have not fasted. A point on the tail is chosen and irradiated by a heat source (75° C.) and the time (in seconds) for which the animal remains without moving its tail is measured.
A maximum period of time of 8 seconds under the heat source is chosen, after which the animal is, in any case, removed to avoid tissue damage. The measurement is effected before (controls) and after treatment with the drugs.
The percentage variation is calculated for each individual animal by the following formula: [formula] The measurements were carried out 10, 20, 30, 45, 60 and 90 minutes after treatment with the analgesics.

[2] = test system: CCK-8 induced contraction of guinea pig gall bladder; assay: Anti-CCK activity on gall bladder strips in vitro; details: CCK-8 10 ng/ml
Protocol: ANTI-CCK ACTIVITY ON GUINEA PIG GALL BALDDERS IN VITRO
A longitudinal strip of guinea pig gall bladder was placed in a bath of isolated members in the presence of Krebs at a temperature of 32° C. with continuous oxygenation with an oxygen-CO2 mixture (95-5V/V).
The isometric contractions were detected by means of a force transducer and recorded.
The gall bladder was made to contract with the use of a 10 ng/ml concentration of CCK-8; the antagonistic activity of the compounds of the invention on the contracting effect of the CCK was determined with the use of different concentrations and the ED 50 value, that is the concentration in μg/ml of a compound which could antagonise 50% of the contracting effect of the CCK, was determined.

Row | Compound | percentage variation of latency of pain sensation ([1]; 10') [%] | percentage variation of latency of pain sensation ([1]; 20') [%] | percentage variation of latency of pain sensation ([1]; 30') [%] | percentage variation of latency of pain sensation ([1]; 45') [%] | percentage variation of latency of pain sensation ([1]; 60') [%] | percentage variation of latency of pain sensation ([1]; 90') [%] | M (10-90) ± SE, mean percentage variation of latency [1] [%] | Power ratio with respect to morphine alone [1] | ED50 (concentration antagonising 50% of contracting effect of CCK-8) [2] [µg/mL]
1 | CCCCN(CCCC)C(=O)CCC(NC(=O)c1ccc(Br)cc1)C(=O)O [Compound D-4] | 72.8 ± 15.0 | 95.8 ± 3.0 | 96.3 ± 4.0 | 85.5 | 87.5 ± 8.0 | 45.3 ± 6.0 | 80.5 ± 19.3 | 2.70 | > 200
2 | CCCN(CCC)C(=O)C(CC(=O)O)NC(=O)c1cccc(C#N)c1 (stereo not drawn) [Compound C-22] | 82.7 ± 9.4 | 67.6 ± 18.0 | 88.4 ± 9.3 | 83.3 | 93.6 ± 6.4 | 53.8 ± 14.9 | 78.2 ± 15.0 | 2.62 | > 200
3 | CCCN(CCC)C(=O)C(CCC(=O)O)NC(=O)c1ccccc1Cl (stereo not drawn) [Compound C-1] | 65.3 ± 18.0 | 67.2 | 66.3 ± 14.0 | 82.7 ± 11.0 | 68.8 ± 17.0 | 59.3 ± 25.0 | 68.2 | 2.29 | > 200
4 | CCCCCN(CCCCC)C(=O)C(CCC(=O)O)NC(=O)c1ccc(C)c(C)c1 (stereo not drawn) [Compound C-55] | 89.3 ± 16 | 86.2 ± 12 | 94.4 | 100 ± 0 | 100 ± 0 | 81.7 ± 13 | 88.6 ± 12 | 2.97 | 0.5
5 | CCCN(CCC)C(=O)CCC(NC(=O)c1ccc(C)c(C)c1)C(=O)O [Compound D-15] | 43.5 ± 16 | 48.7 ± 18 | 72.6 | 60.1 ± 23 | 59.2 ± 18 | 43.5 ± 24 | 54.6 ± 11 | 1.83 | 245.0
6 | CCCCN(CCCC)C(=O)C(CCC(=O)O)NC(=O)c1ccc(Br)cc1 (stereo not drawn) [Compound C-25] | 59.7 ± 15.0 | 49.0 ± 13.0 | 71.5 | 61.9 ± 22.0 | 49.0 ± 22.0 | 20.4 ± 6.0 | 51.9 ± 18.0 | 1.74 | 30.3
7 | CCCCCCN(CCCCCC)C(=O)C(CCC(=O)O)NC(=O)c1ccc(Cl)c(Cl)c1 (stereo not drawn) [Compound C-8] | 67.4 ± 20.5 | 74.1 ± 15.8 | 80.0 ± 12.9 | 85.9 ± 14.1 | 87.1 | 60.4 ± 17.3 | 75.8 ± 10.6 | 2.54 | 0.93
8 | O=C(NC(CCC(=O)N1CCCCC1)C(=O)O)c1ccc(Cl)c(Cl)c1 [Compound D-9] | 88.5 ± 19.0 | 74.0 ± 16.0 | 70.9 ± 16.0 | 73.0 ± 15.0 | 84.5 ± 12.0 | 79.9 ± 12.0 | 75.1 ± 6.0 | 2.52 | > 200
9 | N#Cc1ccc(C(=O)NC(CCC(=O)N2CCCCC2)C(=O)O)cc1 [Compound D-10] | 41.0 ± 8.0 | 58.6 ± 17.0 | 59.8 ± 17.0 | 62.7 ± 15.0 | 47.0 | 35.4 ± 11.0 | 50.8 ± 11.2 | 1.70 | > 200
10 | CCCCNC(=O)C(CCC(=O)O)NC(=O)c1ccc(C)c(C)c1 (stereo not drawn) [Compound C-42] | 49.0 ± 31 | 65.9 ± 24 | 80.1 ± 9 | 59.1 ± 20 | 33.5 ± 20 | 61.4 ± 12 | 58.2 ± 16 | 1.95 | 50.1
11 | CCCCN(CCCC)C(=O)C(CCC(=O)O)NC(=O)c1cccc(C#N)c1 (stereo not drawn) [Compound C-24] | 80.3 ± 13.6 | 87.2 | 96.9 ± 3.0 | 100.0 ± 0.0 | 74.0 ± 16.0 | 75.3 ± 14.0 | 85.6 ± 11.0 | 2.87 | > 200
12 | CCCCNC(=O)CC(NC(=O)c1ccc(Cl)c(Cl)c1)C(=O)O [Compound D-3] | 63.8 ± 17.0 | 79.9 ± 13.0 | 100.0 ± 0.0 | 58.6 ± 18.0 | 33.8 ± 18.0 | 32.9 ± 10.0 | 61.5 | 2.06 | > 200
13 | CCCCN(CCCC)C(=O)C(CCC(=O)O)NC(=O)c1cc(Cl)c(Cl)c(Cl)c1 (stereo not drawn) [Compound C-11] | 25.2 ± 4.0 | 37.6 ± 16.0 | 50.9 ± 11.0 | 54.4 ± 9.0 | 35.8 | 18.7 ± 10.0 | 37.1 ± 14.0 | 1.24 | 0.85
14 | Cc1ccc(C(=O)NC(CCC(=O)N(C)C)C(=O)O)cc1C [Compound D-12] | 45.4 ± 23 | 63.9 ± 15 | 84. ± 16 | 100 ± 0 | 78.5 ± 15 | 56.1 ± 22 | 71.3 ± 20 | 2.39 | > 300
15 | CCCN(CCC)C(=O)C(CCC(=O)O)NC(=O)c1ccc(F)cc1 (stereo not drawn) [Compound C-12] | 54.4 ± 16.7 | 76.3 | 61.6 ± 16.0 | 63.9 ± 20.0 | 65.2 ± 17.0 | 11.6 ± 14.0 | 55.5 | 1.86 | 64.7
